Source: publication PMC8397634 (Journal of Natural Medicines, 2021)
Where “and” joins values, the source holds several entries; their conditions need not be identical. Equal values may be shown once. Entries after “also recorded” stand apart in the source; their conditions may differ. Read-outs that look alike come from different tables or passages of the source.

Legend:
α4β2 nAChRs [1] = biological target: T1, α4β2 nAChRs (Homo sapiens, UniProt P17787+P43681); test: In vitro nAChR functional assay (automated patch-clamp, CHO cells); assay type: cell-based; conditions: for Emax: CHO, read-out: % activation of α4β2 nAChR (normalized to nicotine)
Experimental: Electrophysiological responses were recorded using an automated patch-clamp Patchliner Octo® system (Nanion Technologies, Munich, Germany) equipped with two EPC-10 Quadro patch-clamp amplifiers (HEKA Elektronik, Lambrecht, Germany) as described previously. Chinese hamster ovarian (CHO) cells stably expressing human α4β2 nAChRs (Charles River Laboratories, Wilmington, MA, USA) were used. All experiments were performed at room temperature (24 °C) and repeated at least three times. Data were analyzed using Patchmaster software (HEKA Elektronik). Offline data analysis was performed in Apache OpenOffice™ (v4.1.2; […]). Igor Pro software (v6.2.2.2; WaveMetrics, Lake Oswego, OR, USA) was used to determine EC50 values. […] The average values were then fitted to the Hill equation: I=Baseline+X^∧nH(Imax-Baseline)/X^∧nH+EC50^∧nH, where I is the current response, Baseline is the minimal current response, X is the agonist concentration, nH is the Hill coefficient, Imax is the maximal current, and EC50 is the agonist concentration producing half-maximal activation. […]

[2] = system: zebrafish (Danio rerio; strain AB); conditions: for Time spent at the bottom of the tank during NTT / anxiolytic-like effect: 30 mg/L
Experimental: The NTT conditions closely matched the most commonly used conditions described by. In brief, adult male and female wild-type zebrafish were treated with the compounds for 20 min in a final volume of 50 mL in a 250-mL treatment beaker, one fish at a time. The fish were briefly rinsed in fresh system water, and then immediately transferred to a trapezoidal tank (14.6-cm height × 5.5-cm width × 27.9-cm top length and × 23.6-cm bottom length) filled with 1.5 L system water. The behavior of the fish was monitored for the next 5 min using the Noldus EthoVision XT system (Wageningen, Netherlands), with the camera placed approximately 1 m from the test tank. The tanks were uniformly illuminated from above at approximately 200 lx, reported to be the optimal illumination condition for NTT [23]. Background noise was kept at a minimum during the test. All experimental parameters were monitored closely and kept as consistent as possible throughout the study. The part of the tank filled with water (11.5-cm height) was virtually divided into top, center, and bottom of equal heights (approximately 3.8 cm per segment) for the analyses. The average time spent at the top and bottom portions of the tank was analyzed to determine the anxiety-like behavior of fish. The average total distance traveled and freezing time (as defined by a complete cessation of movement except for gills and eyes) were calculated to determine the effects of the compounds on the general behavior of fish. The analyses were conducted for 1-min time bins. To account for any day-to-day variability in fish behavior, fish treated with vehicle were tested on the same day as the compounds. […] A minimum of 12 fish (6 females and 6 males) per condition were used for the study. The actual sample size per condition is indicated in Online Resource 1. […] The experimenters were blind to the test conditions. The NTT was validated with buspirone, a clinical anxiolytic drug, as previously described.
If not, the concentration was reduced until no obvious signs of tolerability problems were observed. […] The concentrations were calculated based on the free base molecular weight.
Two-way repeated measures analysis of variance (ANOVA) with Dunnett post hoc was used for the 1-min binned analysis of the zebrafish NTT data. Treatment was one factor, and time was the second factor. […] Thus, male and female datasets were combined for the final analyses. […] The EC50 values were determined by applying the nonlinear regression analysis. All analyses were conducted using GraphPad Prism v8.2.1 (GraphPad Software, San Diego, CA, USA).

[3] = Brain bioavailability assay in zebrafish (UPLC-HRMS of brain homogenate); assay type: in vivo, Danio rerio; conditions: zebrafish brain after 20-min exposure, linear relationship assumed, mean ± SEM; for concentration at 20 min: both sexes, zebrafish (Danio rerio), 1 mg/L, read-out: Relative brain level per 1 mg/L compound
Experimental: Four fish (2 males and 2 females) per compound were used to determine the brain bioavailability of the compounds. Immediately after the 20-min compound treatment, the zebrafish were rinsed briefly to remove excessive compound on their body and terminated with 250 mg/L tricaine (CAS No. 886-86-2; Sigma). The fish were decapitated at the level of the gills using a surgical knife. The head was turned dorsal side down, and soft tissue was removed from the ventral side of the skull until the base of the skull was exposed. The skull was broken open and the bone from the ventral side of the brain was removed. The brain was then placed in a microcentrifuge tube, weighed, snap-frozen in liquid nitrogen, and stored at – 80 °C until the analysis.
Briefly, on the day of analysis, the brain samples were defrosted, resuspended in a methanol solution (2:1 [v/v] methanol:MilliQ water), and homogenized with vigorous agitation and ultrasonication (5 min each). The homogenate was centrifuged at 15,000 × rpm for 10 min, and the supernatant was analyzed using a UPLC-Q Exactive Orbitrap-HRMS system (Thermo Fisher Scientific™, Bremen, Germany). Chromatographic separation was achieved on a Synergi™ 4-µm Hydro-RP 80 Å, L.C. Column (250 × 4.6 mm; Phenomenex Inc., Torrance, CA, USA) with 0.1% formic acid in water (mobile phase A) and 0.1% formic acid in acetonitrile (mobile phase B). A gradient method at a 500 µL/min flow rate was applied as follows: (1) 5% B for 1 min, and (2) increase to 95% B over 7 min and hold for 2 min. The injection volume was 5 μL. The mass spectrometer was operated in electrospray positive mode (ESI, Thermo Fisher Scientific), while data acquisition was performed using the parallel reaction monitoring (PRM) and full scan modes. The source settings were set as follows: sheath gas flow rate = 60 psi; aux gas flow rate = 20 arbitrary units; spray voltage = 3.5 kV; capillary temperature = 280 °C; and sweep gas flow rate = 1. The full scan mode parameters were set as follows: resolution = 35,000 FWHM at 200 m/z; AGC target = 1E6; maximum injection time = 110 ms; and scan range = 100–350 m/z. The chromatographic and Orbitrap MS parameters for PRM analysis were the same as those in the full scan mode, except for: AGC target = 2E5; maximum IT = 60 ms; and resolution = 17,500 FWHM at 200 m/z. The XCalibur™ v4.0.27.19 software (Thermo Fisher Scientific) and TraceFinder™ v4.1 Forensic (Thermo Fisher Scientific, San José, CA, USA) were used for system control and data processing, respectively. The Q Exactive 2.8 SP 1 software (Thermo Fisher Scientific) was used to control the mass spectrometer.

α7 nAChR = conditions: cited from earlier work
[4] = system: other molecular targets (175 in vitro binding and enzymatic assays); test: In vitro molecular target profiling (175 binding and enzymatic assays); conditions: 10 µM single concentration; 175 assays; effect greater than 50% considered significant
Experimental: (§1) All binding and functional assays for molecular target characterization were conducted by Eurofins Cerep SA (Celle-Lévescault, France) and Eurofins Panlabs Discovery Services Taiwan, Ltd. (New Taipei City, Taiwan) using their standard in vitro binding and functional assays (Online Source 2). The radioligand displacement binding assays employed the gold-standard filtration method using membrane preparations from stable cell lines expressing human or rodent target proteins to determine the interaction of the compounds with specific receptors, channels, and transporters. For this purpose, the competitive binding of test compounds against a [^125I]-, [^3H]-, or [^35S]-labeled agonist and/or antagonist was determined. The specific list of radiolabeled ligands and experimental conditions are summarized in Online Source 2. A single concentration of each compound (10 µM in 0.1% DMSO) was used for the screen. […] Negative values were considered to be an artifact arising from, for example, compounds interfering with the assay readout.
3.1. Experimental Conditions
In Vitro Pharmacology: Binding Assays
(§2) Assay Source Ligand Conc. Kd Non Specific Incubation Detection Bibl.

muscle-type nAChR = biological target: T2, muscle-type nAChR (Homo sapiens, UniProt P02708+P07510+Q07001); test: Muscle-type nAChR radioligand binding (target profiling); conditions: 10 µM single concentration; effect greater than 50% considered significant
T2 construct: TE671 cells; host or cells: TE671 cells (endogenous)
Experimental: as §1, §2

α4β2 nAChRs [5] = biological target: T1, α4β2 nAChRs; test: In vitro α4β2 nAChR radioligand displacement binding assay; parameters: host or cells: SH-SY5Y cells (human recombinant), membrane preparation
Experimental: as §1, §2

[6] = CHO cells stably expressing human α4β2 nAChRs, patch clamp, 24 °C, mean ± SEM (Fig. 1), read-out: α4β2 nAChR EC50
[7] = all concentrations tested, 20-min treatment, 5-min test, vs vehicle control
[8] = other: immersion in compound solution (waterborne exposure)

T1 sequence (P43681 29-627 limits assumed): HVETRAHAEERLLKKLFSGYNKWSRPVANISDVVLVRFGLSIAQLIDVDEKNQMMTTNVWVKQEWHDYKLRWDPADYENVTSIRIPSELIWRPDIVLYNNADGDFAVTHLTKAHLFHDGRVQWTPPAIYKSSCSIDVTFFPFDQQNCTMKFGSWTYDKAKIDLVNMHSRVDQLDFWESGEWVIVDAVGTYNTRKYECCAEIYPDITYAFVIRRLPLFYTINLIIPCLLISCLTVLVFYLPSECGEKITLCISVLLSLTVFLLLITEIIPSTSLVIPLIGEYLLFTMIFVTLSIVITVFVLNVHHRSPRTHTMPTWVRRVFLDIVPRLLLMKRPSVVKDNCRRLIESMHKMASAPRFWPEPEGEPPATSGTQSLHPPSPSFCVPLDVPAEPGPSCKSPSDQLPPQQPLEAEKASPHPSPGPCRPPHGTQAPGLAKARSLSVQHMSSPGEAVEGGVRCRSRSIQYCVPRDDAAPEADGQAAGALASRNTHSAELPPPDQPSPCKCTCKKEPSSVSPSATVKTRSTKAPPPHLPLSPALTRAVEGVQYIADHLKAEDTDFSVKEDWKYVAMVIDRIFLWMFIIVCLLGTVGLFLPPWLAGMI
T1 sequence (P17787 26-502): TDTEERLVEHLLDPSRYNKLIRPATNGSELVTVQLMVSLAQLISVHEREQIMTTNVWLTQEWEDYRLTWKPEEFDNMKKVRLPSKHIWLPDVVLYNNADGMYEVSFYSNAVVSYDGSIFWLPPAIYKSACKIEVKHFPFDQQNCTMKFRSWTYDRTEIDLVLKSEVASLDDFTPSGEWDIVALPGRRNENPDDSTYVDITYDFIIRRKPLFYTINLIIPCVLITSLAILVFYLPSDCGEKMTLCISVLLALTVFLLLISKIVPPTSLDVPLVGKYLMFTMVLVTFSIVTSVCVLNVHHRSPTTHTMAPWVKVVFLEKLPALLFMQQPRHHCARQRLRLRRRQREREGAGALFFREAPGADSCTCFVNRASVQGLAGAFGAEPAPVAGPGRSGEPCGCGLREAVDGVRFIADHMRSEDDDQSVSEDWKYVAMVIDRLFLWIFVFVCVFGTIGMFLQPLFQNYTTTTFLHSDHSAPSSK
T2 sequence (P02708 21-457): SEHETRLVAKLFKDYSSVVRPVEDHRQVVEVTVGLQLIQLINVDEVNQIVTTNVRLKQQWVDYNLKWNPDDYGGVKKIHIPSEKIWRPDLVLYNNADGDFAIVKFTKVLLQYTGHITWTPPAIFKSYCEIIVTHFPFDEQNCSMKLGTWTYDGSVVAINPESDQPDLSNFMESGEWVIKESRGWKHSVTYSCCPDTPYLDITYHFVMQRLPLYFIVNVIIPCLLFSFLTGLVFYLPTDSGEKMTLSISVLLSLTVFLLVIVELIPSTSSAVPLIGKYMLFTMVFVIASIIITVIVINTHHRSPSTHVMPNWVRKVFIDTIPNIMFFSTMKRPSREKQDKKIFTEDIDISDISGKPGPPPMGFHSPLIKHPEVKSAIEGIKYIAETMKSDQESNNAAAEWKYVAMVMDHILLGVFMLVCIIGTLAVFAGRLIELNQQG
T2 sequence (Q07001 22-517): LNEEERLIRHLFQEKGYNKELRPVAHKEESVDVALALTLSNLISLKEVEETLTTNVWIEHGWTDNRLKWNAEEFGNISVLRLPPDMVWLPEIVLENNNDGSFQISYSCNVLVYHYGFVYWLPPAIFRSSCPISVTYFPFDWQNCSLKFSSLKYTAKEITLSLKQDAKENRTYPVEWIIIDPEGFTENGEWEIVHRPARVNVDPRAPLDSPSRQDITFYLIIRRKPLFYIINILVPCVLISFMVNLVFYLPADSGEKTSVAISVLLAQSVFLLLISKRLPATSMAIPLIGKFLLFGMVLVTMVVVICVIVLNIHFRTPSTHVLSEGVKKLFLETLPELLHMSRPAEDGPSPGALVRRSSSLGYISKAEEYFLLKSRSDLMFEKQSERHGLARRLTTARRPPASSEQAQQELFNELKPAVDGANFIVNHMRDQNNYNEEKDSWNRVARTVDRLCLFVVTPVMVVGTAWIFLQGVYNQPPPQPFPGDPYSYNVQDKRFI
T2 sequence (P07510 23-517): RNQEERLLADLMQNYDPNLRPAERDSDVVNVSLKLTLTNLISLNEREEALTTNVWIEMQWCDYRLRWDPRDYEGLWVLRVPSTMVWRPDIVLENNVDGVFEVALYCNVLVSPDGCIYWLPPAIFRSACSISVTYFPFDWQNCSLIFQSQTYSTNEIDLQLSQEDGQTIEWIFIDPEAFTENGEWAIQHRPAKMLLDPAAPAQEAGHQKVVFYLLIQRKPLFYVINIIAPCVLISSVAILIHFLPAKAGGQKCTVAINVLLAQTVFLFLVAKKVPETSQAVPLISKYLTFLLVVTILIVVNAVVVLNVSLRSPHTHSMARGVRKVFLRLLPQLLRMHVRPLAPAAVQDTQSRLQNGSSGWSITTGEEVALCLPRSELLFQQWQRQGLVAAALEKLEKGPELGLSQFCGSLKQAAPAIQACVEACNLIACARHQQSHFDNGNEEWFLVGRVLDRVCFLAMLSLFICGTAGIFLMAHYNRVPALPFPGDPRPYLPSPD

O=C(c1ccc(Cl)o1)N1CC2CNCC2C1 (centres unmarked) [AZD1446, 3-(5-chloro-2-furoyl)-3,7-diazabicyclo[3.3.0]octane, reference compound]
EC50 (α4β2 nAChRs [1]; [6]): 7.9 µM and < 8 µM | Emax (α4β2 nAChRs [1]): 100% | Time spent at the bottom of the tank during NTT / anxiolytic-like effect ([2]; 20-min treatment): decreased the time spent at the bottom at 2 and 4 min | Time spent at the bottom of the tank during NTT ([2]; 100 mg/L, 20-min treatment): decreased the time spent at the bottom for the first 2 min | Time spent at the top of the tank during NTT ([2]; 30 and 100 mg/L, 20-min treatment): increased the time spent at the top | Size of the reduction of anxiety-like behavior in NTT ([2]; lower two concentrations (30 and 100 mg/L)): ~ 10% | Relative brain level per 1 mg/L compound [3]: could not be detected; also recorded: at the limit of detection; also recorded: No value^d

CC(=O)OCC[N+](C)(C)C [Acetylcholine, reference compound]
% activation of α4β2 nAChR (normalized to nicotine) (α4β2 nAChRs [1]): 100% | Time spent at the bottom of the tank during NTT [2, 7]: no effect | concentration at 20 min [3, 8]: 20 ± 10 ng/g

c1cncc([C@@H]2CCCCN2)c1 [Anabasine, ( +)-Anabasine]
Emax (α4β2 nAChRs [1]): 7% | effectiveness in activating α4β2 nAChRs in vitro (α4β2 nAChRs [1]; preliminary data): 8 ± 4% | EC50 (α4β2 nAChRs [1]; α4β2 nAChR EC50, CHO cells stably expressing human α4β2 nAChRs, patch clamp, 24 °C, mean ± SEM (Fig. 1)): < 8 µM and 0.9 µM | Time spent at the bottom of the tank during NTT [2, 7]: no significant effect | concentration at 20 min ([3]; in vivo): 230 ± 70 ng/g | α7 nAChR activation relative to maximum receptor activation by nicotine or anatabine (α7 nAChR): approximately a third | α7 nAChR agonist activity (α7 nAChR; ref 2 (Alijevic, et al.)): weak α7 nAChR agonist

O=C1CC2(CCCC2)CC(=O)N1CCCCN1CCN(c2ncccn2)CC1 [Buspirone, buspirone, reference compound]
Time spent at the bottom of the tank during NTT / anxiolytic-like effect ([2]; 20-min treatment): consistent anxiolytic-like effect across all time points | Freezing response during NTT ([2]; 100 mg/L): increased the freezing response at 1, 2, and 5 min | Total distance traveled during NTT ([2]; 100 mg/L): reduced the total distance traveled at 1, 4, and 5 min | Time spent at the bottom of the tank during NTT [2, 7]: either reduced the time spent on the bottom or increased the time spent on the top at multiple time points

CN1C(=O)CC[C@H]1c1cccnc1 [Cotinine, (–)-cotinine]
EC50 (α4β2 nAChRs [1]; [6]): 85.3 µM | Emax (α4β2 nAChRs [1]): 59% | Time spent at the bottom of the tank during NTT ([2]; 100 mg/L, 20-min treatment): reduced the overall time spent at the bottom | Concentration needed for anxiolytic-like effect relative to nicotine ([2]; NTT): > 300 fold | concentration at 20 min [3, 8]: 20 ± 10 ng/g | Relative brain level per 1 mg/L compound [3]: less than 0.1 ng/mg tissue | Binding to or regulation of other molecular targets [4]: did not bind or regulate the activities of other molecular targets | Binding to muscle-type nAChR in target profiling (muscle-type nAChR): specific binding | Binding to α4β2 nAChR in target profiling (α4β2 nAChRs [5]; 10 µM single concentration, effect greater than 50% considered significant): specific binding | IC50 (α4β2 nAChRs [5]; n = 3, read-out: α4β2 nAChR IC50 (binding)): 9.9 µM

CNCC/C=C/c1cccnc1 [Metanicotine, metanicotine]
Emax (α4β2 nAChRs [1]): 100% | EC50 (α4β2 nAChRs [1]; α4β2 nAChR EC50): 19.5 ± 6.4 µM | Time spent at the bottom of the tank during NTT [2, 7]: no significant effect | concentration at 20 min ([3]; in vivo): 70 ± 10 ng/g | Relative brain level per 1 mg/L compound [3]: less than 0.1 ng/mg tissue

CN1CC=CC[C@H]1c1cccnc1 [Methylanatabine, (S)-N-methylanatabine]
EC50 (α4β2 nAChRs [1]; [6]): < 8 µM | Emax (α4β2 nAChRs [1]): 26% | EC50 (α4β2 nAChRs [1]; α4β2 nAChR EC50): 6.2 µM | Concentration effective in reducing anxiety-like behavior in NTT ([2]; 20-min treatment): 10 mg/L | Time spent at the bottom of the tank during NTT ([2]; highest concentration tested (10 mg/L), 20-min treatment): anxiolytic-like effect | concentration at 20 min ([3]; in vivo): 1390 ± 560 ng/g | Relative brain level per 1 mg/L compound [3]: ~1 ng/mg tissue | IC50 (α4β2 nAChRs [5]): 0.891 µM

c1cnc2cc3c(cc2n1)[C@@H]1CNC[C@H]3C1 [Varenicline, reference compound]
concentration at 20 min [3, 8]: 450 ± 160 ng/g

( ±)-nornicotine
% activation of α4β2 nAChR (normalized to nicotine) (α4β2 nAChRs [1]): 44% | Time spent at the bottom of the tank during NTT [2, 7]: no significant effect
